Results from US8022617B2, “Organic compound, charge-transporting material, composition for charge-transporting material and organic electroluminescent device” (Mitsubishi Chemical Corporation, priority 2005, dated 2011).

Assay: Solubility in toluene
Format: physicochemical
Settings: solvent toluene
Excerpt: As described below, an aromatic hydrocarbon is preferred as a solvent contained in a composition for charge-transporting material. Toluene is a typical aromatic hydrocarbon and is used as an index of the solubility of the organic compound (charge-transporting material) in the present invention.

| Compound | dissolved in toluene in an amount of [percent by weight] |
| --- | --- |
| O=c1n(-c2cccc(-n3c4ccccc4c4ccccc43)c2)c2ccccc2n1-c1cccc(-n2c3ccccc3c3ccccc32)c1 [Target Compound 4] | ≥ 3 |
| O=c1n(-c2cccc(-c3ccccc3)c2)c2ccccc2n1-c1cccc(-c2ccccc2)c1 [Target Compound 6] | ≥ 5.0 |
| O=c1n(-c2cccc(-n3c4ccccc4c4ccccc43)c2)c2cccnc2n1-c1cccc(-n2c3ccccc3c3ccccc32)c1 [Target Compound 16] | ≥ 3 |

Other lines, results leading:

| dissolved in toluene in an amount of [percent by weight] | Compound |
| --- | --- |
| ≥ 5.0 | O=c1n(-c2ccc(N(c3ccccc3)c3ccc(-c4ccccc4)cc3)cc2)c2ccccc2n1-c1ccc(N(c2ccccc2)c2ccc(-c3ccccc3)cc2)cc1 [Target Compound 5] |
| ≥ 3 | O=c1n(-c2cccc(-n3c4ccccc4c4ccncc43)c2)c2ccccc2n1-c1cccc(-n2c3ccccc3c3ccncc32)c1 [Target Compound 12] |
